Tests used:
Type in all cases: cell-based, human
[1] = system: HL-60 cells; assay: Cell viability resazurin assay, HL-60 cells; conditions: for viability of HL-60 cells relative to control: ± SD
Experimental: (§1) The A549 (human non-small cell lung cancer) cell line was obtained from the American Type Culture Collection (ATCC) and cultured in Dulbecco's Modified Eagle Medium (DMEM) with 10% fetal bovine serum (FBS), 2 mM L-Glutamine, 25 mM HEPES and penicillin/streptomycin solution (100 U/ml and 100 µg/ml, respectively). The HL-60 (human promyelocytic leukemia) cell line was also obtained from the American Type Culture Collection (ATCC) and cultured in Iscove’s Modified Dulbecco's Medium (IMDM) with 15% fetal bovine serum (FBS), 2 mM L-Glutamine, 25 mM HEPES and penicillin/streptomycin solution (100 U/ml and 100 µg/ml, respectively). Both cell lines were cultured in flasks at 37 °C in 5% CO2 and sub-cultured every 2–3 days to maintain exponential growth.
(§2) Firstly, resazurin salt powder was dissolved in sterile 1 × PBS. Cells were then seeded on the 96-well plates in the count of 1 × 10^4 in the case of HL-60 cells and of 5 × 10^4 for PBM cells and of 5 × 10^3 for A549 cells per well. A549 cells were seeded 24 h prior to treatment with the complexes to allow cell adherence to 96-well plate. Iron(II) complexes were added to wells to obtain final concentrations of 0.5, 1, 2.5, 5, 10, 25, 50, 100 and 250 μM. Subsequently, plates were incubated at 37 °C in 5% CO2 for 2 h and 24 h. After that 10 μl of resazurin salt was added to each well and plates again were incubated in 37 °C in 5% CO2 for 2 h. Finally, fluorescence was measured with microplate reader Synergy HT (Bio-Tek Instruments, USA) using an excitation wavelength of 530/25 and an emission wavelength of 590/35 nm. The effects of iron(II) complexes were calculated as the percentage of control fluorescence. IC50 (half maximal inhibitory concentration) values were calculated using a website algorithm (https://www.aatbio.com/tools/ic50-calculator). All assays were performed in octuplicate.

[2] = system: A549 cells; assay: Cell viability resazurin assay, A549 cells; conditions: for viability of A549 cells relative to control: ± SD
Experimental: as §1, §2

[3] = system: PBM cells; assay: Cell viability resazurin assay, PBM cells; conditions: for viability of PBM cells relative to control: ± SD
Description: Peripheral blood mononuclear (PBM) cells were isolated from a leukocyte-buffy coat collected from the blood of healthy, non-smoking donors at the Blood Bank in Lodz, Poland. The study protocol received approval from the Committee for Research on Human Subjects of the University of Lodz (17/KBBN-UŁ/III/2019). The initial step of isolation process involved mixing buffy coats with PBS in a 1:1 ratio. Subsequently, the mixture was centrifuged using a density gradient of Lymphosep (Cytogen, Zgierz, Poland) at 2200 RPM for 20 min, employing the lowest values for acceleration and deceleration. PBM cells were collected and washed three times by centrifugation with 1 × PBS. Following isolation, the cells were suspended in RPMI 1640 medium.
as §2

SMILES: O=C1C=CC(=O)[N-]1.[C-]#[O+].[Fe+2].c1cc[cH-]c1.c1ccc(P(c2ccccc2)c2ccccc2)cc1 [2a, CpFe(CO)(PPh3)(η^1-N-maleimidato)]
- viability of HL-60 cells relative to control ([1]; 2 h incubation, 0.5 µM): 104.08 ± 2.11%
- viability of HL-60 cells relative to control ([1]; 2 h incubation, 1 µM): 103.34 ± 3.15%
- viability of HL-60 cells relative to control ([1]; 2 h incubation, 2.5 µM): 103.43 ± 2.81%
- viability of HL-60 cells relative to control ([1]; 2 h incubation, 5 µM): 108.69 ± 1.98%
- viability of HL-60 cells relative to control ([1]; 2 h incubation, 10 µM): 115.82 ± 2.26%
- viability of HL-60 cells relative to control ([1]; 2 h incubation, 25 µM): 120.78 ± 3.7%
- viability of HL-60 cells relative to control ([1]; 2 h incubation, 50 µM): 118.68 ± 5.5%
- viability of HL-60 cells relative to control ([1]; 2 h incubation, 100 µM): 116.98 ± 3.65%
- viability of HL-60 cells relative to control ([1]; 2 h incubation, 250 µM): 113.31 ± 3.08%
- IC50 ([1]; 24 h incubation): 14.8 µM
- viability of HL-60 cells relative to control ([1]; 24 h incubation, 0.5 µM): 103.09 ± 2.54%
- viability of HL-60 cells relative to control ([1]; 24 h incubation, 1 µM): 104.21 ± 1.11%
- viability of HL-60 cells relative to control ([1]; 24 h incubation, 2.5 µM): 100.69 ± 4.9%
- viability of HL-60 cells relative to control ([1]; 24 h incubation, 5 µM): 79.99 ± 2.5%
- viability of HL-60 cells relative to control ([1]; 24 h incubation, 10 µM): 52.57 ± 0.94%
- viability of HL-60 cells relative to control ([1]; 24 h incubation, 25 µM): 15.3 ± 1.21%
- viability of HL-60 cells relative to control ([1]; 24 h incubation, 50 µM): 10.1 ± 0.23%
- viability of HL-60 cells relative to control ([1]; 24 h incubation, 100 µM): 10.31 ± 0.23%
- viability of HL-60 cells relative to control ([1]; 24 h incubation, 250 µM): 8.4 ± 0.12%
- viability of A549 cells relative to control ([2]; 2 h incubation, 0.5 µM): 84.75 ± 11.62%
- viability of A549 cells relative to control ([2]; 2 h incubation, 1 µM): 71.98 ± 10.47%
- viability of A549 cells relative to control ([2]; 2 h incubation, 2.5 µM): 67.99 ± 8.45%
- viability of A549 cells relative to control ([2]; 2 h incubation, 5 µM): 63.83 ± 8.57%
- viability of A549 cells relative to control ([2]; 2 h incubation, 10 µM): 64.49 ± 7.71%
- viability of A549 cells relative to control ([2]; 2 h incubation, 25 µM): 64.05 ± 10.66%
- viability of A549 cells relative to control ([2]; 2 h incubation, 50 µM): 71.32 ± 8.08%
- viability of A549 cells relative to control ([2]; 2 h incubation, 100 µM): 68.25 ± 7.97%
- viability of A549 cells relative to control ([2]; 2 h incubation, 250 µM): 57.40 ± 11.79%
- IC50 ([2]; 24 h incubation): > 250 µM
- cytotoxicity against A549 cells, in words ([2]; 24 h incubation): did not show cytotoxicity
- viability of A549 cells relative to control ([2]; 24 h incubation, 0.5 µM): 73.24 ± 14.30%
- viability of A549 cells relative to control ([2]; 24 h incubation, 1 µM): 63.60 ± 12.84%
- viability of A549 cells relative to control ([2]; 24 h incubation, 2.5 µM): 68.69 ± 13.05%
- viability of A549 cells relative to control ([2]; 24 h incubation, 5 µM): 65.32 ± 9.49%
- viability of A549 cells relative to control ([2]; 24 h incubation, 10 µM): 114.65 ± 23.41%
- viability of A549 cells relative to control ([2]; 24 h incubation, 25 µM): 117.99 ± 19.59%
- viability of A549 cells relative to control ([2]; 24 h incubation, 50 µM): 105.46 ± 17.32%
- viability of A549 cells relative to control ([2]; 24 h incubation, 100 µM): 120.77 ± 9.93%
- viability of A549 cells relative to control ([2]; 24 h incubation, 250 µM): 90.11 ± 9.87%
- A549 cell viability, increase with increasing concentrations to ([2]; 24 h incubation, concentration not given): 120%
- viability of PBM cells relative to control ([3]; 2 h incubation, 0.5 µM): 98.55 ± 3.27%
- viability of PBM cells relative to control ([3]; 2 h incubation, 1 µM): 98.65 ± 4.06%
- viability of PBM cells relative to control ([3]; 2 h incubation, 2.5 µM): 98.07 ± 3.18%
- viability of PBM cells relative to control ([3]; 2 h incubation, 5 µM): 98.94 ± 2.53%
- viability of PBM cells relative to control ([3]; 2 h incubation, 10 µM): 101.13 ± 3.14%
- viability of PBM cells relative to control ([3]; 2 h incubation, 25 µM): 102.46 ± 3.1%
- viability of PBM cells relative to control ([3]; 2 h incubation, 50 µM): 102.7 ± 2.19%
- viability of PBM cells relative to control ([3]; 2 h incubation, 100 µM): 104.68 ± 1.6%
- viability of PBM cells relative to control ([3]; 2 h incubation, 250 µM): 104.85 ± 1.37%
- IC50 ([3]; 24 h incubation): 61.4 µM
- viability of PBM cells relative to control ([3]; 24 h incubation, 0.5 µM): 101.47 ± 3.95%
- viability of PBM cells relative to control ([3]; 24 h incubation, 1 µM): 98.54 ± 1.78%
- viability of PBM cells relative to control ([3]; 24 h incubation, 2.5 µM): 101.97 ± 3.08%
- viability of PBM cells relative to control ([3]; 24 h incubation, 5 µM): 102.32 ± 1.76%
- viability of PBM cells relative to control ([3]; 24 h incubation, 10 µM): 88.22 ± 1.4%
- viability of PBM cells relative to control ([3]; 24 h incubation, 25 µM): 64.32 ± 0.17%
- viability of PBM cells relative to control ([3]; 24 h incubation, 50 µM): 55.37 ± 0.71%
- viability of PBM cells relative to control ([3]; 24 h incubation, 100 µM): 38.14 ± 0.33%
- viability of PBM cells relative to control ([3]; 24 h incubation, 250 µM): 32.79 ± 1.16%

Source: PMC10920834, “Synthesis, anticancer activity, and molecular docking of half-sandwich iron(II) cyclopentadienyl complexes with maleimide and phosphine or phosphite ligands” (Scientific Reports, 2024)
